The values below come from patent US20250042862A1, “AROMATIC HETEROCYCLIC COMPOUND AND APPLICATION THEREOF” (Shanghai Institute of Materia Medica, Chinese Academy of …, priority 2021, published 2025).

Each structure is given as a SMILES string.

The test has as its target human recombinant LSD1 protein (Homo sapiens (Human), UniProt O60341). The test is described as follows: In vitro enzyme inhibition activity assay - LSD1 (Lance Ultra TR-FRET). In kind it is biochemical. Particulars: all compounds tested in the form of hydrochloride. On the procedure: The purpose of this experiment was to test the in vitro inhibitory activity of the compounds against LSD1. The human recombinant LSD1 protein used in the experiment was purchased from Active Motif, and the enzyme level activity testing assay of LSD1 was performed using the Lance Ultra LSD1 Histone H3 Lysine 4 Demethylase Assay Kit (PerkinElmer). Tris-buffer (50 mMTris-HCl, 50 mMNaCl, 0.01% Tween-20, 1 mM DTT, 10 μM FAD, 10% glycerol, pH 9.0) was first prepared, and after preparation, the LSD1 fractions required for test were placed in this buffer and incubated for one hour at room temperature; the fractions included 4 μL of substrate solution ([…] Bio-H3K4me2, 1-24aa), 4 μL of enzyme solution (4 nM LSD1), and 2 μL of inhibitor in a 384-well microplate. After these operations, another 5 μL of assay mixture containing Eu-labeled H3K4me0 antibody and ULight-Streptavidin anti-biotin protein was added to the system, after which the fluorescence intensity of the components to be tested was detected by using Envision (PerkinElmer) in TR-FRET mode (excitation wavelength of 320 nm, emission wavelength of 620 nm). The test was repeated a total of three times to minimize errors. The final IC50 data were calculated by the software GraphPad Prism 5, and finally the sigmoidal dose-response (variable slope) method was used to obtain the fitted curve.
The LSD1 inhibitory activities of representative compounds of the present application as well as the positive control compound CC90011 were provided in Table 2. All compounds were tested in the form of hydrochloride.
As to `Cc1c(F)cccc1-c1ccc2nc(NC[C@H]3CCNC3)nc(-c3ccc(C#N)c(F)c3)c2c1` [Compound 47, (S)-2-fluoro-4-(6-(3-fluoro-2-methylphenyl)-2-((pyrrolidin-3-ylmethyl)amino)quinazolin-4-yl)benzonitrile], the IC50 is 30 to 300 nM.
The result for `Cc1cccc(F)c1-c1ccc2nc(NC[C@H]3CCNC3)nc(-c3ccc(C#N)c(F)c3)c2c1` [Compound 48, (S)-2-fluoro-4-(6-(2-fluoro-6-methylphenyl)-2-((pyrrolidin-3-ylmethyl)amino)quinazolin-4-yl)benzonitrile] reads ≤ 30 nM; that for `Cc1nn(C)c(C)c1-c1ccc2nc(NC[C@H]3CCNC3)nc(-c3ccc(C#N)c(F)c3)c2c1` [Compound 49, (S)-2-fluoro-4-(2-((pyrrolidin-3-ylmethyl)amino)-6-(1,3,5-trimethyl-1H-pyrazol-4-yl)quinazolin-4-yl)benzonitrile], 30 to 300 nM.
In the case of `N#Cc1ccc(-c2nc(NC[C@H]3CCNC3)nc3ccc(-c4c(F)cccc4F)cc23)cc1F` [Compound 50, (S)-4-(6-(2,6-difluorophenyl)-2-((pyrrolidin-3-ylmethyl)amino)quinazolin-4-yl)-2-fluorobenzonitrile], the IC50 was in the range of 30 to 300 nM.
In the case of `N#Cc1ccc(-c2nc(NC[C@H]3CCNC3)nc3ccc(-c4c(Cl)cccc4Cl)cc23)cc1F` [Compound 51, (S)-4-(6-(2,6-dichlorophenyl)-2-((pyrrolidin-3-ylmethyl)amino)quinazolin-4-yl)-2-fluorobenzonitrile], the IC50 was ≤ 30 nM.
Consider `N#Cc1ccc(-c2nc(NC[C@H]3CCNC3)nc3ccc(-c4c(Cl)cccc4C(F)(F)F)cc23)cc1F` [Compound 52], for which the 50% inhibitory concentration (IC50) is 30 to 300 nM.
On to `Cc1cccc(Cl)c1-c1ccc2nc(NC[C@H]3CCNC3)nc(-c3ccc(C#N)c(F)c3)c2c1` [Compound 53], for which the IC50 is ≤ 30 nM.
In the case of `N#Cc1ccc(-c2nc(NC[C@H]3CCNC3)nc3ccc(-c4c(F)cccc4C(F)(F)F)cc23)cc1F` [Compound 54, (S)-4-(6-(2-fluoro-6-(trifluoromethylphenyl)-2-(pyrrolidin-3-ylmethyl)amino)quinazolin-4-yl)-2-fluorobenzonitrile], the IC50 is ≤ 30 nM.
The result for `N#Cc1ccc(-c2nc(NC[C@H]3CCNC3)nc3ccc(-c4c(F)cccc4Cl)cc23)cc1F` [Compound 55] reads ≤ 30 nM; that for `N#Cc1ccc(-c2nc(NC[C@H]3CCNC3)nc3ccc(-c4cc(F)ccc4C(F)(F)F)cc23)cc1F` [Compound 56, (S)-4-(6-(5-fluoro-2-(trifluoromethyl)-2-(pyrrolidin-3-ylmethyl)amino)quinazolin-4-yl)-2-fluorobenzonitrile], 30 to 300 nM.
Take `N#Cc1ccc(-c2nc(NC[C@H]3CCNC3)nc3ccc(-c4cccc(F)c4C(F)(F)F)cc23)cc1F` [Compound 57, (S)-4-(6-(3-fluoro-2-(trifluoromethylphenyl)-2-(pyrrolidin-3-ylmethyl)amino)quinazolin-4-yl)-2-fluorobenzonitrile]: the IC50 is ≤ 30 nM.
`Cc1cccc(-c2ccc3nc(NC[C@H]4CCNC4)nc(-c4ccc(C#N)c(F)c4)c3c2)c1C(F)(F)F` [Compound 59, (S)-2-fluoro-4-(6-(3-methyl-2-(trifluoromethyl)phenyl)-2-((pyrrolidin-3-ylmethyl)amino)quinazolin-4-yl)benzonitrile]: the IC50 is 30 to 300 nM.
On to `N#Cc1ccc(-c2nc(NC[C@H]3CCNC3)nc3ccc(-c4c(F)ccc(O)c4F)cc23)cc1F` [Compound 60], for which the IC50 lay within 30 to 300 nM.
Turning to `N#Cc1ccc(-c2nc(NC[C@H]3CCNC3)nc3ccc(-c4cccc(O)c4F)cc23)cc1F` [Compound 61, (S)-2-fluoro-4-(6-(2-fluoro-3-hydroxyphenyl)-2-((pyrrolidin-3-ylmethyl)amino)quinazolin-4-yl)benzonitrile], the IC50 lay in the range of 30 to 300 nM.
For `CC1(N)CCN(c2nc(-c3ccc(C#N)c(F)c3)c3cc(-c4c(F)cccc4C(F)(F)F)ccc3n2)CC1` [Compound 63, 4-(2-(4-Amino-4-methylpiperidin-1-yl)-6-(2-fluoro-6-(trifluoromethyl)phenyl)quinazolin-4-yl)-2-fluorobenzonitrile], the IC50 is ≤ 30 nM.
For `N#Cc1ccc(-c2nc(N3CC4C(N)C4C3)nc3ccc(-c4c(F)cccc4C(F)(F)F)cc23)cc1F` (stereo not drawn) [Compound 65, 4-(2-(6-Amino-3-azabicyclo[3.1.0]hexan-3-yl)-6-(2-fluoro-6-(trifluoromethyl)phenyl)quinazolin-4-yl)-2-fluorobenzonitrile] the value was 30 to 300 nM.
Turning to `CNC1CCN(c2nc(-c3ccc(C#N)c(F)c3)c3cc(-c4c(F)cccc4C(F)(F)F)ccc3n2)CC1` [Compound 66, 2-Fluoro-4-(6-(2-fluoro-6-(trifluoromethyl)phenyl)-2-(4-(methylamino)piperidin-1-yl)quinazolin-4-yl)benzonitrile], the half-inhibitory concentration (IC50) is ≤ 30 nM.
As to `N#Cc1ccc(-c2nc(N3CC[C@H](N)[C@H](F)C3)nc3ccc(-c4c(F)cccc4C(F)(F)F)cc23)cc1F` [Compound 67, 4-(2-((3R,4S)-4-amino-3-fluoropiperidin-1-yl)-6-(2-fluoro-6-(trifluoromethyl)phenyl)quinazolin-4-yl)-2-fluorobenzonitrile], the IC50 was ≤ 30 nM.
Take `C[C@@H]1CN(c2nc(-c3ccc(C#N)c(F)c3)c3cc(-c4c(F)cccc4C(F)(F)F)ccc3n2)CC[C@H]1N` [Compound 68, 4-(2-((3R,4R)-4-amino-3-methylpiperidin-1-yl)-6-(2-fluoro-6-(trifluoromethyl)phenyl)quinazolin-4-yl)-2-fluorobenzonitrile]: the IC50 is ≤ 30 nM.
Turning to `N#Cc1ccc(-c2nc(N3C4CCC3CC(N)C4)nc3ccc(-c4c(F)cccc4C(F)(F)F)cc23)cc1F` (stereo not drawn) [Compound 69, 4-(2-(3-amino-8-azabicyclo[3.2.1]octan-8-yl)-6-(2-fluoro-6-(trifluoromethyl)phenyl)quinazolin-4-yl)-2-fluorobenzonitrile], the IC50 was ≤ 30 nM.
For `N#Cc1ccc(-c2nc(N3CCCC(N)C3)nc3ccc(-c4c(F)cccc4C(F)(F)F)cc23)cc1F` (stereo not drawn) [Compound 70, 4-(2-(3-aminopiperidin-1-yl)-6-(2-fluoro-6-(trifluoromethyl)phenyl)quinazolin-4-yl)-2-fluorobenzonitrile] the value was ≤ 30 nM; for `CC1(C)CN(c2nc(-c3ccc(C#N)c(F)c3)c3cc(-c4c(F)cccc4C(F)(F)F)ccc3n2)CCC1N` (stereo not drawn) [Compound 71, 4-(2-(4-amino-3,3-dimethylpiperidin-1-yl)-6-(2-fluoro-6-(trifluoromethyl)phenyl)quinazolin-4-yl)-2-fluorobenzonitrile], ≤ 30 nM.
Consider `N#Cc1ccc(-c2nc(N3CCCC(N)CC3)nc3ccc(-c4c(F)cccc4C(F)(F)F)cc23)cc1F` (stereo not drawn) [Compound 72, 4-(2-(4-aminoazepan-1-yl)-6-(2-fluoro-6-(trifluoromethyl)phenyl)quinazolin-4-yl)-2-fluorobenzonitrile], for which the 50% inhibitory concentration (IC50) was ≤ 30 nM.
Consider `CN(C)C1CCN(c2nc(-c3ccc(C#N)c(F)c3)c3cc(-c4c(F)cccc4C(F)(F)F)ccc3n2)CC1` [Compound 73, 4-(2-(4-(Dimethylamino)piperidin-1-yl)-6-(2-fluoro-6-(trifluoromethyl)phenyl)quinazolin-4-yl)-2-fluorobenzonitrile], for which the IC50 was ≤ 30 nM.
